Measured values as given in publication PMC6704710, “Preclinical evaluation of 3D185, a novel potent inhibitor of FGFR1/2/3 and CSF-1R, in FGFR-dependent and macrophage-dominant cancer models” (Journal of Experimental & Clinical Cancer Research : CR, 2019).

What was measured:
Test in all cases: Eurofins kinase panel
Format in all cases: biochemical
Settings in all cases: read-out: Inhibition rate (%)
[1] = target: T1, ARK5(h) (Homo sapiens, UniProt O60285)
T1 construct: purchased Eurofins (KinaseProfiler)
T1 sequence (O60285 1-661): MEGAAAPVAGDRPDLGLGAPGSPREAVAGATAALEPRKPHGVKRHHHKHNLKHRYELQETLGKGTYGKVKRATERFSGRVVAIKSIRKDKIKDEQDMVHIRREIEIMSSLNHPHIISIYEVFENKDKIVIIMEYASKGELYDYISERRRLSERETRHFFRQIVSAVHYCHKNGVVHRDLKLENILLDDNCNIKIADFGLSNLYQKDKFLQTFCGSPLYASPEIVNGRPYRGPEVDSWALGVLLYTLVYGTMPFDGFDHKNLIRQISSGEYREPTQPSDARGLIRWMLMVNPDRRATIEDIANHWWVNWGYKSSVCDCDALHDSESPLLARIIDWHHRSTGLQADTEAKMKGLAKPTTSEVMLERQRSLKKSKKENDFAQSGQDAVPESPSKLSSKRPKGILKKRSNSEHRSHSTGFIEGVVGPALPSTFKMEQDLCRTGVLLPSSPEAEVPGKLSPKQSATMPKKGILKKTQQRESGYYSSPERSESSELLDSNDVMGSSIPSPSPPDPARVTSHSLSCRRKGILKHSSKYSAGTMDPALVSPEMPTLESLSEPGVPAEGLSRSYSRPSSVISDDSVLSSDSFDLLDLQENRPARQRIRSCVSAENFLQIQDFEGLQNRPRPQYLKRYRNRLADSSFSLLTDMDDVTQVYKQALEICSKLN

[2] = target: T2, CK2α1(h) (Homo sapiens, UniProt P68400)
T2 construct: purchased Eurofins (KinaseProfiler)
T2 sequence (P68400 whole entry): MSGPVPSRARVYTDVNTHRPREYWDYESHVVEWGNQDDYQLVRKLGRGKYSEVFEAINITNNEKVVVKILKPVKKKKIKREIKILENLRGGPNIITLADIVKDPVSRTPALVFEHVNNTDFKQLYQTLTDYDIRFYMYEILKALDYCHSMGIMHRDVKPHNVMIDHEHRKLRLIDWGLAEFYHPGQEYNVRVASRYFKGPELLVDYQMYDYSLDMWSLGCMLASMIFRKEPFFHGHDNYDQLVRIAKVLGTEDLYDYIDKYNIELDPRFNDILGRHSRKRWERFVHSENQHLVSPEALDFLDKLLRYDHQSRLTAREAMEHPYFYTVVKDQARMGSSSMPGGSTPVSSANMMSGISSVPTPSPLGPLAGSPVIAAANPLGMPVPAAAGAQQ

[3] = target: T3, CaMKIIγ(h) (Homo sapiens, UniProt Q13555)
T3 construct: purchased Eurofins (KinaseProfiler)
T3 sequence (Q13555 whole entry): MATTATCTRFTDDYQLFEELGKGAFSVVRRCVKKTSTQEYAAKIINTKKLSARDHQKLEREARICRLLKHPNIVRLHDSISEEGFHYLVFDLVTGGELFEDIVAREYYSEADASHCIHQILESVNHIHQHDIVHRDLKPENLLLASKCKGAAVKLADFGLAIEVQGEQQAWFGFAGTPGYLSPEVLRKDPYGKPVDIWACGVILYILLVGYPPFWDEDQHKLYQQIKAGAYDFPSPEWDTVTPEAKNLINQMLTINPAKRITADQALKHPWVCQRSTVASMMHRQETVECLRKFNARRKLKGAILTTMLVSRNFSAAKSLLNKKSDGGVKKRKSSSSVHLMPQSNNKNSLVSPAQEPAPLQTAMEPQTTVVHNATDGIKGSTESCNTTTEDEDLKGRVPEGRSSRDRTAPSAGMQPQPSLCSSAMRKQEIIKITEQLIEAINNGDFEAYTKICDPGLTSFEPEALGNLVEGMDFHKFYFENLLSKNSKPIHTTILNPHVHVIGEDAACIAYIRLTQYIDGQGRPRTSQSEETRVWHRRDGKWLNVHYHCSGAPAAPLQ

[4] = target: T4, EGFR(L858R)(h) (Homo sapiens, UniProt P00533, L858R)
T4 construct: purchased Eurofins (KinaseProfiler)

[5] = target: T5, HPK1(h) (Homo sapiens, UniProt Q92918)
T5 construct: purchased Eurofins (KinaseProfiler)

[6] = target: T6, IRAK4(h) (Homo sapiens, UniProt Q9NWZ3)
T6 construct: purchased Eurofins (KinaseProfiler)
T6 sequence (Q9NWZ3 1-460): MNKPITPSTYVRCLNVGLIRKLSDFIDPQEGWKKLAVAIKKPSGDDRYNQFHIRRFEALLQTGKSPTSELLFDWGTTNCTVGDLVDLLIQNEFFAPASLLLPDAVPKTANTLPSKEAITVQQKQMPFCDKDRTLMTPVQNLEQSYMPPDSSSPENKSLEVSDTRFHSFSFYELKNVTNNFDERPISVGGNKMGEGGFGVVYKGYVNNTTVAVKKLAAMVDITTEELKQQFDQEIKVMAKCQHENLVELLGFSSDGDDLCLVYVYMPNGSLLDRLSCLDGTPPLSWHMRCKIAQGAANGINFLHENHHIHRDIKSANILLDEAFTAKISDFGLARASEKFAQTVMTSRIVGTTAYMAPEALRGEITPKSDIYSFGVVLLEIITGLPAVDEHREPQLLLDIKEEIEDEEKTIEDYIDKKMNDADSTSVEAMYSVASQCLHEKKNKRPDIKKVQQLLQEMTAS

[7] = target: T7, Lck(h) (Homo sapiens, UniProt P06239)
T7 construct: purchased Eurofins (KinaseProfiler)
T7 sequence (P06239 whole entry): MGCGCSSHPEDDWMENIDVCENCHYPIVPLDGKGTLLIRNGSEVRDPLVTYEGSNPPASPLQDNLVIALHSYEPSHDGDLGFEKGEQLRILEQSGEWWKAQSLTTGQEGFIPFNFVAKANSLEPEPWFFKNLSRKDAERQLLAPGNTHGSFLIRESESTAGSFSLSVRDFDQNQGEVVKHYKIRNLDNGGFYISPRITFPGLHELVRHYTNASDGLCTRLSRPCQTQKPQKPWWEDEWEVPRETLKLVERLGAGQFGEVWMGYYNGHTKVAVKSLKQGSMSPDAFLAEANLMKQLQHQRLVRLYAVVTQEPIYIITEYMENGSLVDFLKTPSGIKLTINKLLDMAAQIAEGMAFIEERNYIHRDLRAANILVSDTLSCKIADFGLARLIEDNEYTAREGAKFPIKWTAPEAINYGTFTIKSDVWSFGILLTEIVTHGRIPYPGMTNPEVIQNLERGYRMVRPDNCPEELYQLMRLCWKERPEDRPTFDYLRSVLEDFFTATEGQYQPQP

[8] = target: T8, MST2(h) (Homo sapiens, UniProt Q13188)
T8 construct: purchased Eurofins (KinaseProfiler)
T8 sequence (Q13188 1-491): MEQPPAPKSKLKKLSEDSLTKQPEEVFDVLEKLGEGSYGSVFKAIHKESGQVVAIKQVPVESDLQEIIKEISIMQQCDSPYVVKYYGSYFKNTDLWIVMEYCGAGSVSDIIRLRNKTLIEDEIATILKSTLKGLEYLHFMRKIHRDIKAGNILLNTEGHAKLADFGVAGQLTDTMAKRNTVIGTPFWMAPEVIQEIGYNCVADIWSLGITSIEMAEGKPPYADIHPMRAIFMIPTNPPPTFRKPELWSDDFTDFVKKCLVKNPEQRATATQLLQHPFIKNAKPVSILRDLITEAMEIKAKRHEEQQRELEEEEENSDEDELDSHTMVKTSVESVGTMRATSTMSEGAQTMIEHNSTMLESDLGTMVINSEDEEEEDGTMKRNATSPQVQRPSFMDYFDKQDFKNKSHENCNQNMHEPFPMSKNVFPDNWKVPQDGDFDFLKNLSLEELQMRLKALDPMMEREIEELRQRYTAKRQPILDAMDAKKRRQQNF

[9] = target: T9, PKA(h) (Homo sapiens, UniProt P17612)
T9 construct: purchased Eurofins (KinaseProfiler)

[10] = target: T10, PTK5(h) (Homo sapiens, UniProt P42685)
T10 construct: purchased Eurofins (KinaseProfiler)
T10 sequence (P42685 whole entry): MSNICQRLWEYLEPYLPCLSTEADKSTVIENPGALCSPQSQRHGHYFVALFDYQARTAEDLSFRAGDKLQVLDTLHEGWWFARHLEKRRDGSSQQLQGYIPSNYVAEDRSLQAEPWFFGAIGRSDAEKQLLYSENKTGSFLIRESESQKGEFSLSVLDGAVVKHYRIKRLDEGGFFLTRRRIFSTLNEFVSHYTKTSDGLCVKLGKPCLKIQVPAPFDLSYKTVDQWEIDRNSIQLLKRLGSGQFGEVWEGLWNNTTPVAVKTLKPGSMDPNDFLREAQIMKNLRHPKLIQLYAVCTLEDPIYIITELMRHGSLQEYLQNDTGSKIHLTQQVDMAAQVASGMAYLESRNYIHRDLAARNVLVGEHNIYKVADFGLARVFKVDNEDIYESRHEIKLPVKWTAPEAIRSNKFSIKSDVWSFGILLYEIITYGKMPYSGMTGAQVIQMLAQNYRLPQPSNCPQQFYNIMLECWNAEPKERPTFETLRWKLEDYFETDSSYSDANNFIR

[11] = target: T11, Pim-3(h) (Homo sapiens, UniProt Q86V86)
T11 construct: purchased Eurofins (KinaseProfiler)

[12] = target: T12, Ret (V804L)(h) (Homo sapiens, UniProt P07949, V804L)
T12 construct: purchased Eurofins (KinaseProfiler)

[13] = target: T13, Ros(h) (Homo sapiens, UniProt P08922)
T13 construct: purchased Eurofins (KinaseProfiler)
T13 sequence (P08922 28-2347): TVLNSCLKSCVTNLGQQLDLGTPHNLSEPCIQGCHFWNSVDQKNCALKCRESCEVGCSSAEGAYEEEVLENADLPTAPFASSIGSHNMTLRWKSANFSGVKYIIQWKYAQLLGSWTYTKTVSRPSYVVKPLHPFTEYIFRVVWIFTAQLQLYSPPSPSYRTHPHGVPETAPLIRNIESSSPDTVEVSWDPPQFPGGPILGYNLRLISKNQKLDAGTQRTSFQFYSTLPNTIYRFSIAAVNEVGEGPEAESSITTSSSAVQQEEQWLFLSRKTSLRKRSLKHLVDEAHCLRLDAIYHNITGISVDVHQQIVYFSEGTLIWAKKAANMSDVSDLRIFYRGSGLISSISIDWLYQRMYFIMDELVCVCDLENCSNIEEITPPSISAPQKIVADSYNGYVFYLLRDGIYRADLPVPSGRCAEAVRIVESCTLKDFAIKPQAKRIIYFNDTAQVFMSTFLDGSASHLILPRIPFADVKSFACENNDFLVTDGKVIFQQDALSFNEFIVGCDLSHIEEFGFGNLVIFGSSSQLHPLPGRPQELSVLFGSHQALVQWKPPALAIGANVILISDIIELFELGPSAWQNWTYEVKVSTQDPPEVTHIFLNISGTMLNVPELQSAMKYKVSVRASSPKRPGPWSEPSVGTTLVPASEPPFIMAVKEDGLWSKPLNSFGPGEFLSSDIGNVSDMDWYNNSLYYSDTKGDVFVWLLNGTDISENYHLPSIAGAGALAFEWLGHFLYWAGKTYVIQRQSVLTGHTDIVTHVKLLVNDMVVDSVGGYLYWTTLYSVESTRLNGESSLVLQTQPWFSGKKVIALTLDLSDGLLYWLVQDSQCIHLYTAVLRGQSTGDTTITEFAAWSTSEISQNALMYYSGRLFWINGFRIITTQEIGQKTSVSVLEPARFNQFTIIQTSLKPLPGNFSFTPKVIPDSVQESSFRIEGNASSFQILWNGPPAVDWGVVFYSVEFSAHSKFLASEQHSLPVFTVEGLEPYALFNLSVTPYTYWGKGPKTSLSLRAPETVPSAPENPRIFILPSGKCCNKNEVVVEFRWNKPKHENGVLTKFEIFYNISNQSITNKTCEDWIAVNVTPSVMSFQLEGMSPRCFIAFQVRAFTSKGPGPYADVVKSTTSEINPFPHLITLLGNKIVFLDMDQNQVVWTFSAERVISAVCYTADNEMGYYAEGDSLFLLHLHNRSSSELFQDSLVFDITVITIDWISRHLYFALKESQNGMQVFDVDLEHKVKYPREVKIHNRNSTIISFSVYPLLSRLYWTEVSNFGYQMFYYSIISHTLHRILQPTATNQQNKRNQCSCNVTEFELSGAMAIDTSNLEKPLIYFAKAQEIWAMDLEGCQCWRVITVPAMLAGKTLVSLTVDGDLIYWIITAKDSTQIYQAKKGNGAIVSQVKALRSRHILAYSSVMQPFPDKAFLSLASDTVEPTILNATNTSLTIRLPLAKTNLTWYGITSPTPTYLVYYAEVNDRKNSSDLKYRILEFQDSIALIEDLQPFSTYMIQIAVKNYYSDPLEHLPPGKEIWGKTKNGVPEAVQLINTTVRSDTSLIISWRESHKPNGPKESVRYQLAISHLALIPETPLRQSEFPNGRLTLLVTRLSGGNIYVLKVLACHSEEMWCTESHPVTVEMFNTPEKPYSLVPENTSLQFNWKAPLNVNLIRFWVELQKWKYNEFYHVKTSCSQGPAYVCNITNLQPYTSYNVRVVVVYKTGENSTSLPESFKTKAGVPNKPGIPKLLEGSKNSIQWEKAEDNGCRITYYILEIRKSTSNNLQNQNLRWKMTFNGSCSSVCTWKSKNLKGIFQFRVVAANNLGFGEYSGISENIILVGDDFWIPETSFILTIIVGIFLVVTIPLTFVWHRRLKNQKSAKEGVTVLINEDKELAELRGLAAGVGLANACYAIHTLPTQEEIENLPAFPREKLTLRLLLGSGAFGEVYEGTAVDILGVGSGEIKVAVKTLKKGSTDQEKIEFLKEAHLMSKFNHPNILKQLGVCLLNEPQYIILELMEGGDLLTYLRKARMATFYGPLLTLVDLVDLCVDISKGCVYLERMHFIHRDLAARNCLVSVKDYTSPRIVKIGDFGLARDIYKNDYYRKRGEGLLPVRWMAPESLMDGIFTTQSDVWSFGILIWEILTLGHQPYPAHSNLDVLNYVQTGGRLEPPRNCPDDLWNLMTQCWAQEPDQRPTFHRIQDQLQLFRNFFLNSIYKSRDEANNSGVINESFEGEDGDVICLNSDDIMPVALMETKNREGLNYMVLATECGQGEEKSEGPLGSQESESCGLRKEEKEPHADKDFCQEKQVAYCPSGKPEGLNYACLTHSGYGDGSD

COc1cc(OC)c(Cl)c(-c2ccc3c(NC(=O)c4ccc(N5CCNC(C)(C)C5)cc4)n[nH]c3n2)c1Cl [3D185]
inhibition at 0.01 µM ([1]; 10 nM): 11% | inhibition at 0.1 µM ([1]; 100 nM): 16% | inhibition at 1 µM ([1]; 1000 nM): 13% | inhibition at 0.01 µM ([2]; 10 nM): 23% | inhibition at 0.1 µM ([2]; 100 nM): 21% | inhibition at 1 µM ([2]; 1000 nM): 10% | inhibition at 0.01 µM ([3]; 10 nM): -2% | inhibition at 0.1 µM ([3]; 100 nM): -6% | inhibition at 1 µM ([3]; 1000 nM): -9% | inhibition at 0.01 µM ([4]; 10 nM): 1% | inhibition at 0.1 µM ([4]; 100 nM): 9% | inhibition at 1 µM ([4]; 1000 nM): 30% | inhibition at 0.01 µM ([5]; 10 nM): 17% | inhibition at 0.1 µM ([5]; 100 nM): 65% | inhibition at 1 µM ([5]; 1000 nM): 94% | inhibition at 0.01 µM ([6]; 10 nM): -2% | inhibition at 0.1 µM ([6]; 100 nM): -2% | inhibition at 1 µM ([6]; 1000 nM): -4% | inhibition at 0.01 µM ([7]; 10 nM): 22% | inhibition at 0.1 µM ([7]; 100 nM): 60% | inhibition at 1 µM ([7]; 1000 nM): 94% | inhibition at 0.01 µM ([8]; 10 nM): 16% | inhibition at 0.1 µM ([8]; 100 nM): 41% | inhibition at 1 µM ([8]; 1000 nM): 65% | inhibition at 0.01 µM ([9]; 10 nM): 5% | inhibition at 0.1 µM ([9]; 100 nM): -8% | inhibition at 1 µM ([9]; 1000 nM): 5% | inhibition at 0.01 µM ([10]; 10 nM): 19% | inhibition at 0.1 µM ([10]; 100 nM): 64% | inhibition at 1 µM ([10]; 1000 nM): 91% | inhibition at 0.01 µM ([11]; 10 nM): -5% | inhibition at 0.1 µM ([11]; 100 nM): -11% | inhibition at 1 µM ([11]; 1000 nM): -1% | inhibition at 0.01 µM ([12]; 10 nM): -13% | inhibition at 0.1 µM ([12]; 100 nM): -15% | inhibition at 1 µM ([12]; 1000 nM): 20% | inhibition at 0.01 µM ([13]; 10 nM): -4% | inhibition at 0.1 µM ([13]; 100 nM): 6% | inhibition at 1 µM ([13]; 1000 nM): 17%
